In brackets after ≈: the same amount, converted by molar mass. Where two headings read alike, the source gives them in different places. Each block holds one compound with its values, some of them ahead of it. Non-standard residues stand in square brackets, D forms with d. Residues, ends and D or L forms follow the SMILES beside them. *: point of attachment. Lauroyl = CCCCCCCCCCCC(=O)*
Legend:
Type in all cases: cell-based
[1] = tested on: Aspergillus fumigatus ATCC 26430; assay: microbe, parasite or virus in culture
[2] = tested on: Escherichia coli ATCC 25922
Procedure: (§1) The antibacterial activity of the lipopeptides was examined in sterile 96-well plates (Nunc F96 microtiter plates) in a final volume of 100 μl as follows: Aliquots (50 μl) of a suspension containing bacteria at concentration of 1×10^6 Colony-Forming Units (CFU)/ml in culture LB (Lauria broth) medium (pH 7.4 or pH 5.5) were added to 50 μl of water containing the lipopeptide in serial 2-fold dilutions in water. Adjustment of the pH was done by diluted solutions of HCl and NaOH Inhibition of growth was determined by measuring the absorbance at 600 nm with a Microplate autoreader E1309 (Bio-Tek Instruments), after an incubation time of 18-20 h at 37° C. Antibacterial activities were expressed as the minimal inhibitory concentration (MIC), the concentration at which 100% inhibition of growth was observed after 18-20 h of incubation. The bacteria used were: Escherichia coli ATCC 25922, Acinetobacter baumannii ATCC 19606, Pseudomonas aeruginosa ATCC 27853, Staphylococcus aureus ATCC 6538P, Enterococcus faecalis ATCC 29212, Enterobacter cloacae ATCC 49141. The antibacterial activity of lipopeptides was also examined against resistant bacteria: methicilin-resistant Staphylococcus aureus (MRSA) ATCC 700698 and vancomycin-resistant Enterococcus faecium (VRE) ATCC 700221. If not indicated otherwise, the bacterial growth was detected at pH 7.4.

[3] = tested on: Staphylococcus aureus ATCC 6538P
Procedure: as §1

[4] = tested on: Acinetobacter baumannii ATCC 19606
Procedure: as §1

[5] = tested on: Pseudomonas aeruginosa ATCC 27853
Procedure: as §1

[6] = tested on: Cryptococcus neoformans ATCC 66031; assay: microbe, parasite or virus in culture
Procedure: (§2) The antifungal activity of the lipopeptides was examined in sterile 96-well plates (Nunc F96 microtiter plates) in a final volume of 200 μL as follows: 100 µl of a suspension containing fungi at a concentration of 1×10^4 Colony-Forming Units (CFU)/ml in culture medium (RPMI 1640, 0.165 M MOPS with L-glutamine, without NaHCO3) at pH 7.4 or pH 5.5 (adjustment of the pH was done by diluted solutions of HCl and NaOH) were added to 100 μl of water containing the peptide in serial 2-fold dilutions in water. The fungi were incubated in the presence of the lipopeptides for 24-48 h at 35° C. in a Binder KB115 incubator under agitation. Growth inhibition was determined by measuring the absorbance at 620 nm with a Microplate autoreader E1309 (Bio-Tek Instruments). Antifungal activity is expressed as the minimal inhibitory concentration (MIC), the concentration at which 100% inhibition of fungi growth was observed after the incubation time mentioned above. The fungi used were: Aspergillus niger ATCC 9642, Candida albicans ATCC 10231 and Cryptococcus neoformans ATCC 66031. If not indicated otherwise, the fungi growth was detected at pH 7.4.

[7] = tested on: Candida albicans ATCC 10231; assay: microbe, parasite or virus in culture
Procedure: as §2

E. coli D21 = tested on: E. coli D21

Structure (SMILES): CCCCCCCCCCCC(=O)N[C@H](CC(C)C)C(=O)N[C@@H](Cc1c[nH]cn1)C(=O)N[C@@H](Cc1c[nH]cn1)C(=O)N[C@H](CC(C)C)C(=O)N[C@H](CC(C)C)C(=O)N[C@@H](Cc1c[nH]cn1)C(=O)N[C@@H](Cc1c[nH]cn1)C(=O)N[C@H](CC(C)C)C(=O)N[C@H](CC(C)C)C(=O)N[C@@H](Cc1c[nH]cn1)C(=O)N[C@@H](Cc1c[nH]cn1)C(=O)N[C@H](CC(C)C)C(N)=O [lipopeptide 26, (CH3-(CH2)10-CO-)-D-Leu-His-His-D-Leu-D-Leu-His-His-D-Leu-D-Leu-His-His-D-Leu-NH2] (Lauroyl-[dL]HH[dL][dL]HH[dL][dL]HH[dL]-NH2)
MIC ([1]; Table 12, with serum, pH 7.4, read-out: Minimal inhibitory concentrations, A. Fumig. With serum): 100 µM (≈ 170 µg/mL)
MIC ([1]; Table 12, without serum, pH 7.4, read-out: Minimal inhibitory concentrations, A. Fumig. Without serum): >100 µM
MIC ([1]; Table 13, pH 5.5, with serum, read-out: Minimal inhibitory concentrations, A. Fumig. With serum): 100 µM (≈ 170 µg/mL)
MIC ([1]; Table 13, pH 5.5, without serum, read-out: Minimal inhibitory concentrations, A. Fumig. Without serum): 6.25 µM (≈ 10.6 µg/mL)
Minimal inhibitory concentrations, E. Coli ATCC 25922 ([2]; Table 6, pH 7.4): >100 µM
Minimal inhibitory concentrations, E. Coli ATCC 25922 ([2]; Table 7, pH 5.5): >100 µM
Minimal inhibitory concentrations, S. aureus II ATCC 6538P ([3]; Table 6, pH 7.4): 100 µM (≈ 170 µg/mL)
Minimal inhibitory concentrations, S. aureus II ATCC 6538P ([3]; Table 7, pH 5.5): >100 µM
Minimal inhibitory concentrations, A. baumannii ATCC 19606 ([4]; Table 6, pH 7.4): 100 µM (≈ 170 µg/mL)
Minimal inhibitory concentrations, A. baumannii ATCC 19606 ([4]; Table 7, pH 5.5): >100 µM
Minimal inhibitory concentrations, P. Aeruginosa ATCC 27853 ([5]; Table 6, pH 7.4): >100 µM
Minimal inhibitory concentrations, P. Aeruginosa ATCC 27853 ([5]; Table 7, pH 5.5): 100 µM (≈ 170 µg/mL)
MIC ([6]; Table 12, with serum, pH 7.4, read-out: Minimal inhibitory concentrations, C. Neofor. With serum): 100 µM (≈ 170 µg/mL)
MIC ([6]; Table 12, without serum, pH 7.4, read-out: Minimal inhibitory concentrations, C. Neofor. Without serum): 12.5 µM (≈ 21.3 µg/mL)
MIC ([6]; Table 13, pH 5.5, with serum, read-out: Minimal inhibitory concentrations, C. Neofor. With serum): 50 µM (≈ 85.1 µg/mL)
MIC ([6]; Table 13, pH 5.5, without serum, read-out: Minimal inhibitory concentrations, C. Neofor. Without serum): 3.125 µM (≈ 5.32 µg/mL)
MIC ([7]; Table 12, with serum, pH 7.4, read-out: Minimal inhibitory concentrations, C. Albicans With serum): >100 µM
MIC ([7]; Table 12, without serum, pH 7.4, read-out: Minimal inhibitory concentrations, C. Albicans Without serum): >100 µM
MIC ([7]; Table 13, pH 5.5, with serum, read-out: Minimal inhibitory concentrations, C. Albicans With serum): >100 µM
MIC ([7]; Table 13, pH 5.5, without serum, read-out: Minimal inhibitory concentrations, C. Albicans Without serum): 9.375 µM (≈ 15.9 µg/mL)
Minimal inhibitory concentrations, E. Coli D21 (E. coli D21; Table 6, pH 7.4): >100 µM
Minimal inhibitory concentrations, E. Coli D21 (E. coli D21; Table 7, pH 5.5): 100 µM (≈ 170 µg/mL)

MIC ([1]; ATCC 26430, pH 5.5, read-out: Minimal inhibitory concentrations, A. Fumig. With serum): 100 µM (≈ 167 µg/mL)
MIC ([1]; ATCC 26430, pH 5.5, read-out: Minimal inhibitory concentrations, A. Fumig. Without serum): 12.5 µM (≈ 20.9 µg/mL)
MIC ([1]; ATCC 26430, pH 7.4, read-out: Minimal inhibitory concentrations, A. Fumig. With serum): 100 µM (≈ 167 µg/mL)
MIC ([1]; ATCC 26430, pH 7.4, read-out: Minimal inhibitory concentrations, A. Fumig. Without serum): 25 µM (≈ 41.9 µg/mL)
MIC ([6]; ATCC 66031, pH 5.5, read-out: Minimal inhibitory concentrations, C. Neofor. With serum): 12.5 µM (≈ 20.9 µg/mL)
MIC ([6]; ATCC 66031, pH 5.5, read-out: Minimal inhibitory concentrations, C. Neofor. Without serum): <0.78 µM
MIC ([6]; ATCC 66031, pH 7.4, read-out: Minimal inhibitory concentrations, C. Neofor. With serum): 6.25 µM (≈ 10.5 µg/mL)
MIC ([6]; ATCC 66031, pH 7.4, read-out: Minimal inhibitory concentrations, C. Neofor. Without serum): 1.56 µM (≈ 2.61 µg/mL)
MIC ([7]; ATCC 10231, pH 5.5, read-out: Minimal inhibitory concentrations, C. Albicans With serum): >100 µM
MIC ([7]; ATCC 10231, pH 5.5, read-out: Minimal inhibitory concentrations, C. Albicans Without serum): 12.5 µM (≈ 20.9 µg/mL)
MIC ([7]; ATCC 10231, pH 7.4, read-out: Minimal inhibitory concentrations, C. Albicans With serum): >100 µM
MIC ([7]; ATCC 10231, pH 7.4, read-out: Minimal inhibitory concentrations, C. Albicans Without serum): 12.5 µM (≈ 20.9 µg/mL)
Structure (SMILES): CCCCCCCCCCCC(=O)N[C@H](CC(C)C)C(=O)N[C@@H](CCCCN)C(=O)N[C@@H](Cc1c[nH]cn1)C(=O)N[C@H](CC(C)C)C(=O)N[C@H](CC(C)C)C(=O)N[C@@H](CCCCN)C(=O)N[C@@H](Cc1c[nH]cn1)C(=O)N[C@H](CC(C)C)C(=O)N[C@H](CC(C)C)C(=O)N[C@@H](CCCCN)C(=O)N[C@@H](Cc1c[nH]cn1)C(=O)N[C@H](CC(C)C)C(N)=O [lipopeptide 28, (CH3-(CH2)10-CO-)-D-Leu-Lys-His-D-Leu-D-Leu-Lys-His-D-Leu-D-Leu-Lys-His-D-Leu-NH2] (Lauroyl-[dL]KH[dL][dL]KH[dL][dL]KH[dL]-NH2)
Minimal inhibitory concentrations, E. Coli ATCC 25922 ([2]; ATCC 25922, pH 5.5): >100 µM
Minimal inhibitory concentrations, E. Coli ATCC 25922 ([2]; ATCC 25922, pH 7.4): 100 µM (≈ 167 µg/mL)
Minimal inhibitory concentrations, S. aureus II ATCC 6538P ([3]; ATCC 6538, pH 5.5): >100 µM
Minimal inhibitory concentrations, S. aureus II ATCC 6538P ([3]; ATCC 6538, pH 7.4): 18.75 µM (≈ 31.4 µg/mL)
Minimal inhibitory concentrations, A. baumannii ATCC 19606 ([4]; ATCC 19606, pH 5.5): >100 µM
Minimal inhibitory concentrations, A. baumannii ATCC 19606 ([4]; ATCC 19606, pH 7.4): 50 µM (≈ 83.7 µg/mL)
Minimal inhibitory concentrations, P. Aeruginosa ATCC 27853 ([5]; ATCC 27853, pH 5.5): >100 µM
Minimal inhibitory concentrations, P. Aeruginosa ATCC 27853 ([5]; ATCC 27853, pH 7.4): 50 µM (≈ 83.7 µg/mL)
Minimal inhibitory concentrations, E. Coli D21 (E. coli D21; D21, pH 5.5): >100 µM
Minimal inhibitory concentrations, E. Coli D21 (E. coli D21; D21, pH 7.4): 50 µM (≈ 83.7 µg/mL)
